Laboratory results reported in the NIST ThermoML archive (doi:10.1021/acs.jced.9b00668).
± gives the expanded uncertainty stated by the source.

Columns and labels:
[1] = xn = mol fraction of the nth substance listed; conditions: 298.15 K, 101.3 kPa, Liquid, Vibrating tube method
[2] = Liquid; for mass density: 298.15 K, 101.3 kPa, Vibrating tube method; for vapor or sublimation pressure: Ebulliometric method (Recirculating still)
[3] = refractive index (Na D-line) (dimensionless); conditions: 298.15 K; 101.3 kPa; Liquid; Standard Abbe refractometry

CC(C)CC(C)(C)C [2,2,4-trimethylpentane] + COC(C)=O
Conditions	mass density [kg/m3]
[1], x2 = 0	687.8 ± 0.3

COC(C)=O [methyl ethanoate] + CCCCCCC
[1]
Conditions	mass density [kg/m3]
x1 = 0.0579	685.5 ± 0.3
x1 = 0.0789	687.8 ± 0.3
x1 = 0.0926	689.7 ± 0.3
x1 = 0.1276	694.1 ± 0.3
x1 = 0.1562	697.4 ± 0.3
x1 = 0.1662	698.8 ± 0.3
x1 = 0.1998	703.2 ± 0.3
x1 = 0.2413	709.3 ± 0.3
x1 = 0.2652	712.7 ± 0.3
x1 = 0.2914	716.8 ± 0.3
x1 = 0.3583	728.4 ± 0.3
x1 = 0.4171	739 ± 0.3
x1 = 0.43	741.6 ± 0.3
x1 = 0.4682	749.3 ± 0.3
x1 = 0.506	757.3 ± 0.3
x1 = 0.5357	764 ± 0.3
x1 = 0.584	775.6 ± 0.3
x1 = 0.6338	788.4 ± 0.3
x1 = 0.715	811.7 ± 0.2
x1 = 0.7194	813 ± 0.2
x1 = 0.7256	814.9 ± 0.2
x1 = 0.7698	829 ± 0.2
x1 = 0.7996	839.2 ± 0.2
x1 = 0.8104	843.3 ± 0.2
x1 = 0.8285	850.2 ± 0.2
x1 = 0.8537	859.8 ± 0.2
x1 = 0.8558	860.5 ± 0.2
x1 = 0.8898	874.1 ± 0.2
x1 = 0.901	879.1 ± 0.2
x1 = 0.9172	885.8 ± 0.2
x1 = 0.9284	890.8 ± 0.2
x1 = 0.9598	905.6 ± 0.2
x1 = 0.9631	907.4 ± 0.2
x1 = 0.9735	912.8 ± 0.2
x1 = 1	927.1 ± 0.2

CCCCCCC [heptane] + CCOC(C)=O
Conditions	mass density [kg/m3]
[1], x2 = 0	679.7 ± 0.3

CCOC(C)=O [ethyl acetate] + CC(C)CC(C)(C)C
Conditions	mass density [kg/m3]
[1], x1 = 1	894.4 ± 0.2

CCCCCCC [heptane]
Conditions	mass density [kg/m3]	refractive index
[2]	679.7 ± 0.3	–
[3]	–	1.38527 ± 0.0004

Conditions	vapor or sublimation pressure [kPa]
[2], 498.65 K	1500 ± 15

COC(C)=O [methyl ethanoate] + CC(C)CC(C)(C)C
[1]
Conditions	mass density [kg/m3]
x1 = 0.0646	693.5 ± 0.3
x1 = 0.0822	695.3 ± 0.3
x1 = 0.0859	695.7 ± 0.3
x1 = 0.0992	697 ± 0.3
x1 = 0.1566	703.6 ± 0.3
x1 = 0.1941	707.9 ± 0.3
x1 = 0.208	709.7 ± 0.3
x1 = 0.224	711.7 ± 0.3
x1 = 0.2636	717.1 ± 0.3
x1 = 0.2688	717.7 ± 0.3
x1 = 0.2957	721.6 ± 0.3
x1 = 0.3211	725.4 ± 0.3
x1 = 0.3319	727 ± 0.3
x1 = 0.3956	737.4 ± 0.3
x1 = 0.5015	757.3 ± 0.2
x1 = 0.578	774 ± 0.2
x1 = 0.5792	774.3 ± 0.2
x1 = 0.6528	792.8 ± 0.2
x1 = 0.6958	804.5 ± 0.2
x1 = 0.7268	813.9 ± 0.2
x1 = 0.7611	824.8 ± 0.2
x1 = 0.7834	832.2 ± 0.2
x1 = 0.8161	843.6 ± 0.2
x1 = 0.8466	855.3 ± 0.2
x1 = 0.848	855.8 ± 0.2
x1 = 0.8628	861.6 ± 0.2
x1 = 0.8632	861.9 ± 0.2
x1 = 0.8889	872.5 ± 0.2
x1 = 0.9179	885.5 ± 0.2
x1 = 0.9388	895.1 ± 0.2
x1 = 0.9406	895.7 ± 0.2
x1 = 0.9456	898.3 ± 0.2
x1 = 0.9574	904.3 ± 0.2
x1 = 1	927.1 ± 0.2

CC(C)CC(C)(C)C [2,2,4-trimethylpentane]
Conditions	mass density [kg/m3]	refractive index
[2]	687.8 ± 0.3	–
[3]	–	1.38905 ± 0.00036

[2]
Conditions	vapor or sublimation pressure [kPa]
371.91 K	100 ± 3
504.65 K	1500 ± 3

CCOC(C)=O [ethyl acetate]
Conditions	mass density [kg/m3]	refractive index
[2]	894.4 ± 0.2	–
[3]	–	1.36981 ± 0.00035

[2]
Conditions	vapor or sublimation pressure [kPa]
350.19 K	100 ± 3
462.75 K	1500 ± 3

CCOC(C)=O [ethyl acetate] + CCCCCCC
[1]
Conditions	mass density [kg/m3]
x1 = 0.0642	687.5 ± 0.3
x1 = 0.071	688.3 ± 0.3
x1 = 0.125	695.2 ± 0.3
x1 = 0.1274	695.8 ± 0.3
x1 = 0.1932	705.1 ± 0.3
x1 = 0.2136	708.2 ± 0.3
x1 = 0.3294	726.7 ± 0.3
x1 = 0.3874	736.7 ± 0.3
x1 = 0.4593	750.2 ± 0.3
x1 = 0.5966	778.8 ± 0.2
x1 = 0.6582	793.2 ± 0.2
x1 = 0.6841	799.3 ± 0.2
x1 = 0.7001	803.7 ± 0.2
x1 = 0.7346	812.6 ± 0.2
x1 = 0.8029	830.8 ± 0.2
x1 = 0.8272	837.6 ± 0.2
x1 = 0.8471	843.6 ± 0.2
x1 = 0.9069	862.1 ± 0.2
x1 = 0.9631	880.7 ± 0.2
x1 = 1	894.4 ± 0.2

CC(C)CC(C)(C)C [2,2,4-trimethylpentane] + CCOC(C)=O
[1]
Conditions	mass density [kg/m3]
x2 = 0	687.8 ± 0.3
x2 = 0.0627	694.4 ± 0.3
x2 = 0.1027	699 ± 0.3
x2 = 0.1524	704.9 ± 0.3
x2 = 0.2008	711.1 ± 0.3
x2 = 0.272	721 ± 0.3
x2 = 0.3528	733.3 ± 0.3
x2 = 0.386	738.7 ± 0.2
x2 = 0.4349	747.1 ± 0.2
x2 = 0.4568	751 ± 0.2
x2 = 0.5071	760.4 ± 0.2
x2 = 0.5362	766.1 ± 0.2
x2 = 0.6042	780.2 ± 0.2
x2 = 0.7014	802.6 ± 0.2
x2 = 0.7603	817.7 ± 0.2
x2 = 0.8488	842.7 ± 0.2
x2 = 0.8968	857.9 ± 0.2
x2 = 0.9273	868.1 ± 0.2
x2 = 0.9465	874.7 ± 0.2

CCCCCCC [heptane] + COC(C)=O
Conditions	mass density [kg/m3]
[1], x2 = 0	679.7 ± 0.3

COC(C)=O [methyl ethanoate]
Conditions	mass density [kg/m3]	refractive index
[2]	927.1 ± 0.2	–
[3]	–	1.35875 ± 0.00035

[2]
Conditions	vapor or sublimation pressure [kPa]
329.99 K	100 ± 3
436.08 K	1500 ± 3
